Data: US20200020099A1, “INFORMATION PROCESSING DEVICE, INFORMATION PROCESSING SYSTEM, AND INFORMATION PROCESSING METHOD” (SONY CORPORATION, priority 2017, published 2020)

What was measured:
[1] = tested on: HL60 cell; assay: Motion amount of the intracellular structure (motion vector analysis) from moving images; format: cell-based; conditions: concentrations of 0.01 μM, 0.1 μM, 1 μM, and 10 μM, FIG. 7
Source text: More specifically, the analysis unit 121 extracts a motion vector between at least two imaged images having different imaging times. For example, the analysis unit 121 can extract a motion vector from a range designated by a user using a […], a gradient method, or the like. Note that the analysis unit 121 may extract a motion vector from the entire imaged image.
The length of a motion vector is a motion amount. The analysis unit 121 can calculate a motion amount (motion speed) of an intracellular structure per unit time from an interval (time) of the two imaged images from which the motion vector has been extracted. Note that in the present technology, the motion amount of the intracellular structure can be determined using an average value, a median value, a maximum value, a standard deviation, and the like of the lengths of the motion vectors.
By a similar method to Example 1 described above, the morphological change amounts (area change amounts and peripheral length change amounts) in a case where CCCP was added at concentrations of 0.01 μM, 0.1 μM, 1 μM, and 10 μM were calculated, respectively. Furthermore, a motion vector under similar conditions was calculated at an interval of about 1 μm, and a spatiotemporal average of the motion amounts (motion speeds) per unit time for each cell was calculated to create a color map. […]

[2] = tested on: HL60 cell; assay: Quantification of morphological change (area change amount, peripheral length change amount) from phase difference moving images; format: cell-based
Source text: An image (moving image) of an HL60 cell that had been differentiated and stimulated by adding 1% DMSO and performing culture for one week was imaged over time with a phase difference microscope under conditions that magnification of an objective lens was 60 times, an imaging interval was 27 frames/second, and imaging time was 60 seconds. FIG. 5 is an image illustrating cell boundary recognition and tracking according to Example 1. […] Thereafter, the cell boundary was tracked by matching the drawn solid line to a next image. Then, a cell area in the continuous image was tracked by repeating matching to the continuous image.
Thereafter, the area and the peripheral length were calculated from the tracked cell area, and an average of the areas, an average of the peripheral lengths, and change amounts thereof in the continuous image were calculated. Then, the change amount with respect to the average of the areas or peripheral lengths was calculated as the morphological change amount (area change amount and peripheral length change amount). This was used as Control. By a similar method, as for a case where 100 μM of a mitochondrial […] agent, carbonyl cyanide m-chlorophenylhydrazone (also simply referred to as “CCCP” here), which is a drug that inhibits intracellular metabolism, was added, the morphological change amount was calculated similarly. The upper drawing of FIG. 6 is a drawing-substituting graph illustrating an area change amount and a peripheral length change amount according to Example 1, and the lower drawing of FIG. 6 is an image illustrating cell boundary recognition and tracking in Control and in a case where CCCP is added according to Example 1.

[3] = 100 μM added, differentiated HL60 cell (1% DMSO, one week), vs Control, FIG. 6
[4] = concentrations of 0.01 μM, 0.1 μM, 1 μM, and 10 μM, HL60 cell, FIG. 7
[5] = 200 nM added, HL60 cell, vs Control, FIG. 10

SMILES | motion amount (vector analysis) of the intracellular structure [1] | area change amount [2, 3] | peripheral length change amount [2, 3] | area change amount [2, 4] | peripheral length change amount [2, 4] | area change amount [2, 5] | peripheral length change amount [2, 5]
N#CC(C#N)=NNc1cccc(Cl)c1 [CCCP, carbonyl cyanide m-chlorophenylhydrazone] | concentration-dependent decrease | significant decrease | significant decrease | concentration-dependent decrease | concentration-dependent decrease | – | –
C=C1[C@@H](C)[C@H]2[C@H](Cc3ccccc3)NC(=O)[C@]23[C@H](OC(C)=O)/C=C/[C@@](C)(O)C(=O)[C@@H](C)C/C=C/[C@H]3[C@@H]1O [Cytochalasin D] | – | – | – | – | – | significant decrease | significant decrease
